# Experimental data published in ChEMBL document CHEMBL6153050, “Repurposing FDA-approved drugs to target G-quadruplexes in breast cancer” (Eur J Med Chem, 2025).
# pIC50: −log10 of the molar value. Calls of active or inactive are those of the source. No cut-off for these calls is given here.
# What was measured:
# Quadruplex DNA [1] = conditions: time 10.0 min
# Quadruplex RNA [2] = conditions: time 10.0 min
# Quadruplex DNA [3] = conditions: time 10.0 min; remark: listed apart in the source
# Quadruplex DNA [4] = conditions: time 10.0 min; remark: listed apart in the source
# Quadruplex RNA [5] = conditions: time 10.0 min; remark: listed apart in the source
# Quadruplex DNA [6] = conditions: time 10.0 min; remark: listed apart in the source
# MCF7 [7] = assay: Cytotoxicity against human MCF7 cells assessed as reduction in cell viability incubated for 6 days by SRB assay; type: functional, cell-based; conditions: Homo sapiens, MCF7, 144 h; for IC25: time 6 day, read-out: IC25
# Quadruplex DNA [8] = assay: Stabilization of G4 quadruplex DNA (unknown origin) in human MDA-MB-231 cells at IC50 concentration incubated for 6 days by flow cytometric analysis; type: cell-based; conditions: time 6.0 day
# MCF7 [9] = assay: Induction of DNA damage in human MCF7 cells assessed as increase in gamma-H2AX level at IC50 concentration incubated for 6 days by flow cytometric analysis; type: functional, cell-based; conditions: time 6.0 day
# MCF7 [10] = assay: Effect on cell cycle arrest in human MCF7 cells at IC50 concentration incubated for 6 days by PI staining based flow cytometric analysis; type: functional; conditions: time 6.0 day
# MCF7 [11] = assay: Effect on cell cycle arrest in human MCF7 cells at IC25 concentration incubated for 6 days by PI staining based flow cytometric analysis; type: functional; conditions: time 6.0 day
# MDA-MB-231 [12] = assay: Cytotoxicity against human MDA-MB-231 cells assessed as reduction in cell viability incubated for 6 days by SRB assay; type: functional, cell-based; conditions: Homo sapiens, MDA-MB-231, 144 h; for IC25: time 6 day, read-out: IC25
# Quadruplex DNA [13] = assay: Stabilization of G4 quadruplex DNA (unknown origin) in human MCF7 cells at IC50 concentration incubated for 6 days by flow cytometric analysis; type: cell-based; conditions: time 6.0 day
# MDA-MB-231 [14] = assay: Effect on cell cycle arrest in human MDA-MB-231 cells at IC50 concentration incubated for 6 days by PI staining based flow cytometric analysis; type: functional; conditions: time 6.0 day
# Quadruplex DNA [15] = assay: Stabilization of G4 quadruplex DNA (unknown origin) in human MCF7 cells at IC25 concentration incubated for 6 days by flow cytometric analysis; type: cell-based; conditions: time 6.0 day
# MCF7 [16] = assay: Induction of DNA damage in human MCF7 cells assessed as increase in gamma-H2AX level at IC25 concentration incubated for 6 days by flow cytometric analysis; type: functional, cell-based; conditions: time 6.0 day
# MDA-MB-231 [17] = assay: Induction of DNA damage in human MDA-MB-231 cells assessed as increase in gamma-H2AX level at IC50 concentration incubated for 6 days by flow cytometric analysis; type: functional, cell-based; conditions: time 6.0 day
# Quadruplex DNA [18] = assay: Stabilization of G4 quadruplex DNA (unknown origin) in human MDA-MB-231 cells at IC25 concentration incubated for 6 days by flow cytometric analysis; type: cell-based; conditions: time 6.0 day
# MDA-MB-231 [19] = assay: Induction of DNA damage in human MDA-MB-231 cells assessed as increase in gamma-H2AX level at IC25 concentration incubated for 6 days by flow cytometric analysis; type: functional, cell-based; conditions: time 6.0 day
# MDA-MB-231 [20] = assay: Effect on cell cycle arrest in human MDA-MB-231 cells at IC25 concentration incubated for 6 days by PI staining based flow cytometric analysis; type: functional; conditions: time 6.0 day
# MCF7 [21] = assay: Cytotoxicity against human MCF7 cells assessed as reduction in cell viability at 0.625 to 20 uM incubated for 6 days by SRB assay; type: functional, cell-based; conditions: dose 0.625-20 µM, time 6.0 day
# SK-BR-3 = assay: Cytotoxicity against human SK-BR-3 cells assessed as reduction in cell viability at 20 uM incubated for 6 days by SRB assay; type: functional, cell-based; conditions: time 6.0 day
# Quadruplex DNA [22] = assay: Stabilization of G4 quadruplex DNA (unknown origin) in human MDA-MB-231 cells assessed as increase in G4 motif at IC50 concentration incubated for 6 days by flow cytometric analysis; type: cell-based; conditions: time 6.0 day
# MDA-MB-231 [23] = assay: Cytotoxicity against human MDA-MB-231 cells assessed as reduction in cell viability at 20 uM incubated for 6 days by SRB assay; type: functional, cell-based; conditions: time 6.0 day
Structure (SMILES),deltaTm1/2 (Quadruplex DNA [1]) [°C],deltaTm1/2 (Quadruplex RNA [2]) [°C],deltaTm1/2 (Quadruplex DNA [3]) [°C],deltaTm1/2 (Quadruplex DNA [4]) [°C],deltaTm1/2 (Quadruplex RNA [5]) [°C],deltaTm1/2 (Quadruplex DNA [6]) [°C],further results
COc1cc(NC(C)CCCN)c2ncccc2c1 (stereo not given),0.4,4.2,-2.6,3.6,0.3,3.7,–
CONC(=O)Nc1ccc(-c2sc3c(c2CN(C)C)c(=O)n(-c2ccc(OC)nn2)c(=O)n3Cc2c(F)cccc2F)cc1,2.4,9.7,1.9,9.8,-0.2,4.3,–
N[C@@H]1CCCCN(c2c(F)cc3c(=O)c(C(=O)O)cn(C4CC4)c3c2Cl)C1,1.3,2.8,1.7,4.9,1.7,-0.3,–
CCN(CC)CCCC(C)Nc1c2ccc(Cl)cc2nc2ccc(OC)cc12 (stereo not given),> 20,> 20,18.5,> 20,15.4,> 20,–
O=C(c1ccc(OCCN2CCCCC2)cc1)c1c(-c2ccc(O)cc2)sc2cc(O)ccc12 [RALOXIFENE],4,6.3,3.2,11,1.6,7.8,pIC50 (MCF7 [7]): 5.57; IC25 (MCF7 [7]): 0.63 µM; Activity (Quadruplex DNA [8]): inactive; Activity (MCF7 [9]): inactive; Activity (MCF7 [10]): inactive; Activity (MCF7 [11]): inactive; pIC50 (MDA-MB-231 [12]): 4.99; IC25 (MDA-MB-231 [12]): 8.2 µM; Activity (Quadruplex DNA [13]): inactive; Activity (MDA-MB-231 [14]): inactive; Activity (Quadruplex DNA [15]): inactive; Activity (MCF7 [16]): inactive; Activity (MDA-MB-231 [17]): inactive; Activity (Quadruplex DNA [18]): inactive; Activity (MDA-MB-231 [19]): inactive; Activity (MDA-MB-231 [20]): inactive
CN(C)CCCOc1nn(Cc2ccccc2)c2ccccc12,2.5,5.1,3,8.4,0.3,1.1,–
CCc1cc2c(cc1N1CCC(N3CCOCC3)CC1)C(C)(C)c1[nH]c3cc(C#N)ccc3c1C2=O,0,4.6,-3.3,2.5,1.1,-1.1,–
Cc1cc2ncc(C(=O)NCC(C)(C)NCC(=O)N3CCC[C@H]3C#N)cn2n1,-0.1,1.9,5.4,3.1,0.4,-0.9,–
CCc1cc2c(cc1CC)CC(NC[C@H](O)c1ccc(O)c3[nH]c(=O)ccc13)C2 [INDACATEROL],1.5,4.9,5.8,6.2,0.6,4,pIC50 (MCF7 [7]): 5.13; IC25 (MCF7 [7]): 4.3 µM
COc1c(-c2ccc3cc(NS(C)(=O)=O)ccc3c2)cc(-n2ccc(=O)[nH]c2=O)cc1C(C)(C)C,-0.4,2.6,4.5,1.4,-0.3,-0.7,–
CN1CCC[C@@H]1Cc1c[nH]c2ccc(CCS(=O)(=O)c3ccccc3)cc12,0.6,4.5,5.2,6,0.8,4,Activity (MCF7 [21]): Active
Cn1nnc(-c2ccc(-c3ccc(N4C[C@H](CO)OC4=O)cc3F)cn2)n1,1.2,1,1,3,1.2,2.3,–
COc1ccc(-c2cc(=O)c3c(OC)c(OC)c(OC)cc3o2)cc1OC,1.5,8.1,4,10.6,1.1,5.3,–
CCCCOc1cc(C(=O)NCCN(CC)CC)c2ccccc2n1,0.2,3.2,4.4,5.4,1,2.8,–
CN1CCCC(n2nc(Cc3ccc(Cl)cc3)c3ccccc3c2=O)CC1 (stereo not given) [AZELASTINE],7.7,9.6,5.3,17.1,2.3,8.1,pIC50 (MCF7 [7]): 4.99; IC25 (MCF7 [7]): 5.8 µM; Activity (SK-BR-3): Active; Activity (MCF7 [9]): Active; Activity (MCF7 [10]): inactive; Activity (MCF7 [11]): inactive; Activity (Quadruplex DNA [22]): Active; pIC50 (MDA-MB-231 [12]): 5.09; IC25 (MDA-MB-231 [12]): 5.2 µM; Activity (Quadruplex DNA [13]): Active; Activity (MDA-MB-231 [14]): inactive; Activity (MDA-MB-231 [23]): Active; Activity (MDA-MB-231 [17]): inactive; Activity (MDA-MB-231 [20]): inactive
COc1cc(O)c(C(=O)Nc2nc(C(=O)NCCN(C(C)C)C(C)C)cs2)cc1OC,3.9,7.5,4.4,9.5,3.5,9.4,–
CCn1cc(C(=O)O)c(=O)c2cc(F)c(N3CCN(C)CC3)cc21,4.6,9.8,4.5,8,3.3,1,–
